Measurements from US20130017174A1, “COMPOSITIONS AND METHODS FOR INCREASING HEALTH AND REDUCING PATHOGENIC BACTERIA IN ANIMALS” (The Board of Trustees of the University of Arkansas, priority 2011, published 2013).

Tested on: Salmonella enteritidis
Experiment: In vitro testing: SE recovery from inoculated chick starter feed
Type: cell-based
Settings: feed with increasing amounts of sodium nitrate (1-1000 ppm), 42° C. for 24 hours, vs control (FIG. 1)
Experimental: Briefly, 1.25 grams of chick starter feed was measured into 13×100 mm borosilicate tubes and autoclaved. Nitrate was mixed into the feed before autoclaving at concentrations of 1000 ppm, 100 ppm, 10 ppm, or 1 ppm (Sodium Nitrate, Sigma Chemical Co., St. Louis, Mo.).
The feed also contained 0.1% lactose as a prebiotic. The feed was suspended in 4.5 mL sterile saline and inoculated with 0.5 mL of Salmonella enteriditis (SE) culture containing approximately 10^4 cfu/ml. The tubes were treated with either 0.6 ml of 10^6 cfu/ml of FloraMax-B11® probiotic or saline as a negative control. After administering the treatment, the tubes were agitated and incubated at 42° C. for 24 hours. The tubes then were agitated and the content was serially diluted and plated on Brilliant Green Agar (BGA) containing novobiocin (250 ml) and nalidixic acid (20 μl/ml) to select for SE. Typical SE colonies were counted after 24 hours of incubation.

## O=[N+]([O-])[O-].[Na+] [sodium nitrate, Sodium Nitrate]
  recovery of SE: decreased recovery of SE as compared to the control
